Reference: ChEMBL document CHEMBL1221165, “Actin is the primary cellular receptor of bistramide A” (Nat Chem Biol, 2005)
The source made the active and inactive calls. The calls are words filed in the database; no cut-off is given here.

What was measured:
[1] = system: RBL-2H3; assay: Induction of GFP-PKCdelta translocation from cytoplasm to nuclear in RBL2H3 cells at 200 nM over 30 mins by fluorescent imaging; type: functional, cell-based; conditions: Rattus norvegicus
[2] = system: RBL-2H3; assay: Induction of GFP-PKCdelta translocation from cytoplasm to plasma membrane in RBL2H3 cells at 200 nM over 30 mins by fluorescent imaging; type: functional, cell-based; conditions: Rattus norvegicus
[3] = biological target: Protein kinase C delta type (Rattus norvegicus) (UniProt P09215); assay: Induction of rat recombinant PKCdelta activity
Sequence of Protein kinase C delta type (Rattus norvegicus) (P09215 whole entry): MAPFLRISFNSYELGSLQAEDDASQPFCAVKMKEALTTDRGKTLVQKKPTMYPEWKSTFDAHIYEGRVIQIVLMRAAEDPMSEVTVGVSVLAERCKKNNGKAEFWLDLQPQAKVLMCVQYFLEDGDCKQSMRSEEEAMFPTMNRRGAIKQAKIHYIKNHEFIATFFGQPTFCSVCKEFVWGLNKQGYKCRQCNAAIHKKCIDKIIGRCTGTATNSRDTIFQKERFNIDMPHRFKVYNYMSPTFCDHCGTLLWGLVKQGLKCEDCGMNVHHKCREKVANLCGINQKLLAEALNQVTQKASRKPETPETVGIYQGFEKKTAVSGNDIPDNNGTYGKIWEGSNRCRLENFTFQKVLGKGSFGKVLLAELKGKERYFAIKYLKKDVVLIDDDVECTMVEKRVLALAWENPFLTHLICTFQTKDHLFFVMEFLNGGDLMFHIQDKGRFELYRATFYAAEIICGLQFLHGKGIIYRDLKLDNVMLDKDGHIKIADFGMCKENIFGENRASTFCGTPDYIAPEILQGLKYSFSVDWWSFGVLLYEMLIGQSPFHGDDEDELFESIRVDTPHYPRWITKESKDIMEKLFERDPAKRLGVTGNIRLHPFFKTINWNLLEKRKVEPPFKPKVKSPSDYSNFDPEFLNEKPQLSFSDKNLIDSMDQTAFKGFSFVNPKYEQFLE

[4] = system: A549; assay: Increase in dissolution of filamentous actin in human A549 cells at 120 to 450 nM by using FITC-phallodin staining by fluorescent microscopy; type: cell-based
[5] = system: MCF7; assay: Cell cycle arrest in human MCF7 cells assessed as accumulation at G2/M phase at 1 uM after 48 hrs (Rbv = 7%); type: functional
[6] = system: PC-3; assay: Cell cycle arrest in human PC3 cells assessed as accumulation at G2/M phase at 1 uM after 48 hrs (Rbv = 19%); type: functional
[7] = system: HL-60; assay: Cell cycle arrest in human HL60 cells assessed as accumulation at G2/M phase at 0.5 uM after 48 hrs (Rbv = 11%); type: functional
[8] = system: CHO-K1; assay: Dissolution of filamentous actin in chinese hamster CHOK1 cells at 20 nM within 15 mins by using FITC-phallodin staining by fluorescent microscopy; type: cell-based; conditions: Cricetulus griseus
[9] = system: HL-60; assay: Cell cycle arrest in human HL60 cells assessed as accumulation at G1 phase at 0.5 uM after 48 hrs (Rbv = 38%); type: functional
[10] = system: PC-3; assay: Cytotoxicity against human PC3 cells assessed as growth inhibition after 48 hrs; type: functional; conditions: PC-3, 48 h
[11] = system: CA46; assay: Cell cycle arrest in human CA46 cells assessed as accumulation at G0/G1 phase at 1 uM after 48 hrs; type: functional, cell-based
[12] = system: MCF7; assay: Cell cycle arrest in human MCF7 cells assessed as accumulation at G1 phase at 1 uM after 48 hrs (Rbv = 73%); type: functional
[13] = Binding affinity to rabbit skeletal muscle globular actin by isothermal calorimetric method; type: tissue-based, Oryctolagus cuniculus, Muscle tissue
[14] = system: PC-3; assay: Cell cycle arrest in human PC3 cells assessed as accumulation at S phase at 1 uM after 48 hrs (Rbv = 18%); type: functional
[15] = system: PC-3; assay: Dissolution of filamentous actin in human PC3 cells at 20 nM within 15 mins by using FITC-phallodin staining by fluorescent microscopy; type: functional, cell-based
[16] = system: A549; assay: Cytotoxicity against human A549 cells assessed as growth inhibition after 48 hrs; type: functional; conditions: A549, 48 h
[17] = system: A549; assay: Cytotoxicity against human A549 cells assessed as cell viability after 48 hrs; type: functional, cell-based; conditions: A549, 48 h
[18] = system: HCT-116; assay: Cytotoxicity against human HCT116 cells assessed as growth inhibition after 48 hrs; type: functional; conditions: HCT-116, 48 h
[19] = system: RBL-2H3; assay: Induction of GFP-PKCdelta translocation from cytoplasm to nuclear in RBL2H3 cells at 5 uM over 30 mins by fluorescent imaging; type: functional, cell-based; conditions: Rattus norvegicus
[20] = system: CA46; assay: Antiproliferative activity against human CA46 cells assessed as mitotic cells at 1 uM after 48 hrs by visual examination (Rbv = 3%); type: functional
[21] = system: HL-60; assay: Cytotoxicity against human HL60 cells assessed as growth inhibition after 48 hrs; type: functional; conditions: HL-60, 48 h
[22] = Depolymerization of Ca2+ filamentous actin in human A549 cells at 450 nM by using FITC-phallodin staining; type: cell-based
[23] = system: CA46; assay: Cell cycle arrest in human CA46 cells assessed as accumulation at G2/M phase at 1 uM after 48 hrs; type: functional, cell-based
[24] = system: HL-60; assay: Cell cycle arrest in human HL60 cells assessed as accumulation at S phase at 0.5 uM after 48 hrs (Rbv = 44%); type: functional
[25] = system: PC-3; assay: Cell cycle arrest in human PC3 cells assessed as accumulation at G1 phase at 1 uM after 48 hrs (Rbv = 58%); type: functional
[26] = system: MCF7; assay: Cell cycle arrest in human MCF7 cells assessed as accumulation at G0/G1 phase at 1 uM after 48 hrs (Rbv = 74%); type: functional
[27] = system: A549; assay: Dissolution of filamentous actin in human A549 cells after 1 hr by using FITC-phallodin staining by fluorescent microscopy; type: cell-based
[28] = system: PC-3; assay: Cytotoxicity against human PC3 cells assessed as cell viability after 48 hrs; type: functional, cell-based; conditions: PC-3, 48 h
[29] = system: HCT-116; assay: Cytotoxicity against human HCT116 cells assessed as cell viability after 48 hrs; type: functional, cell-based; conditions: HCT-116, 48 h
[30] = system: A549; assay: Inhibition of globular actin polymerization at steady state in human A549 cells assessed as change in fluorescence intensity; type: cell-based
[31] = system: MCF7; assay: Cell cycle arrest in human MCF7 cells assessed as accumulation at S phase at 1 uM after 48 hrs (Rbv = 18%); type: functional
[32] = biological target: T1, Protein kinase C delta type (Homo sapiens, UniProt Q05655); assay: Induction of human recombinant PKCdelta assessed as phosphorylation of amphiphilic peptide substrate at 0.1 uM in presence of 10 uM phosphatidylserine relative to control
Target sequence in this assay (Q05655 whole entry, looked up): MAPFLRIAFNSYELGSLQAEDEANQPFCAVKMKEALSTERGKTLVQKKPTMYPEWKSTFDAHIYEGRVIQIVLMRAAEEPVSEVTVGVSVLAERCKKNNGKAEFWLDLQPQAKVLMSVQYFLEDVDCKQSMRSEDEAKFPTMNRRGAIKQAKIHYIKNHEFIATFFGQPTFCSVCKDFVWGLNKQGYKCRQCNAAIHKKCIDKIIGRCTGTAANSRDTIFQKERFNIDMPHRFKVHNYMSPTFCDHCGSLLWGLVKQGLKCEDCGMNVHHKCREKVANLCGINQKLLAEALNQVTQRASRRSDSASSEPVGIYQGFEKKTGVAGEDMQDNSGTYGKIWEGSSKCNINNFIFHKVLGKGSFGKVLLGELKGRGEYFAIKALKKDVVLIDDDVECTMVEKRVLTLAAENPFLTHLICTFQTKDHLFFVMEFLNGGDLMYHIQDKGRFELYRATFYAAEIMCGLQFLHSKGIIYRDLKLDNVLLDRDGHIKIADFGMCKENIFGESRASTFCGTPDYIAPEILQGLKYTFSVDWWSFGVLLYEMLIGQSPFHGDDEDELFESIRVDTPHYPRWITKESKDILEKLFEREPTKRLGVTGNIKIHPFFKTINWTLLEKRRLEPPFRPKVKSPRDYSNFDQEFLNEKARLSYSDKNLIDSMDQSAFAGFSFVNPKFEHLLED

[33] = biological target: T1, Protein kinase C delta type; assay: Displacement of [3H]PDBu from human recombinant PKCdelta by competitive binding assay
Target sequence in this assay (Q05655 whole entry): as the sequence (Q05655 whole entry, looked up) above

[34] = biological target: T1, Protein kinase C delta type; assay: Induction of human recombinant PKCdelta assessed as phosphorylation of amphiphilic peptide substrate at 1 uM in presence of 10 uM phosphatidylserine relative to control
Target sequence in this assay (Q05655 whole entry, looked up): as above

[35] = Depolymerization of Mg2+ filamentous actin in human A549 cells at 450 nM by using FITC-phallodin staining; type: cell-based
[36] = system: CA46; assay: Antiproliferative activity against human CA46 cells assessed as binucleated cells at 1 uM after 48 hrs by visual examination (Rbv = 6%); type: functional
[37] = system: A549; assay: Dissolution of filamentous actin in human A549 cells at 50 to 150 nM by using FITC-phallodin staining by fluorescent microscopy; type: cell-based; conditions: TDE = time-dependent effect
[38] = system: PtK2; assay: Dissolution of filamentous actin in […] PtK2 cells at 20 nM within 15 mins by using FITC-phallodin staining by fluorescent microscopy; type: cell-based
[39] = system: HL-60; assay: Cytotoxicity against human HL60 cells assessed as cell viability after 48 hrs; type: functional, cell-based; conditions: HL-60, 48 h
[40] = species: Oryctolagus cuniculus; assay: (§1) Binding affinity to rabbit skeletal muscle monomeric actin by isothermal calorimetric method; type: tissue-based; conditions: Muscle tissue
[41] = Inhibition of actin polymerization
[42] = as §1; type: tissue-based, Oryctolagus cuniculus, Muscle tissue

SMILES: CCC/C=C/C=C/C(=O)O[C@H]1/C(=C/C(=O)OC)C[C@H]2C[C@H]([C@@H](C)O)OC(=O)C[C@H](O)C[C@@H]3C[C@H](OC(C)=O)C(C)(C)[C@](O)(C[C@@H]4C/C(=C/C(=O)OC)C[C@H](/C=C/C(C)(C)[C@]1(O)O2)O4)O3
- Activity [1]: Active
- Activity [2]: Active

SMILES: C/C=C/C(=O)C[C@H]1CC[C@H](C)[C@H](CC(=O)NC[C@H](O)[C@H](C)C(=O)NCCC[C@H]2O[C@@]3(CCC[C@H](CC[C@H](C)/C=C(\C)[C@H](C)O)O3)CC[C@@H]2C)O1 [BISTRAMIDE A]
- Activity [3]: inactive
- Activity [4]: Active
- Activity [5]: 38%
- Activity [6]: 43%
- Activity [7]: 27%
- Activity [8]: Active
- Activity [9]: 18%
- GI50 [10]: 5 nM
- Activity [11]: Active
- Activity [12]: 33%
- Kd [13]: 7 nM
- Activity [14]: 14%
- Activity [15]: Active
- GI50 [16]: 13 nM
- IC50 [17]: 63 nM
- GI50 [18]: 200 nM
- Activity [19]: inactive
- Activity [20]: 4%
- GI50 [21]: 200 nM
- Activity [22]: Active
- Activity [23]: Active
- Activity [24]: 48%
- Activity [25]: 37%
- Activity [26]: 33%
- Activity [27]: Dose-dependent effect
- IC50 [28]: 107 nM
- IC50 [29]: 437 nM
- inhibition [30]: Dose-dependent effect
- Activity [31]: 24%
- fold change (FC) [32]: 4.5
- Ki [33]: 27 µM
- fold change (FC) [34]: 3.8
- Activity [35]: Active
- Activity [36]: 48%
- Activity [37]: tde
- Activity [38]: Active
- IC50 [39]: > 1000 nM
- Ka [40]: 1.46 ×10⁸ /M

SMILES: C/C1=C/C(=O)O[C@@H]2C[C@@H](CC[C@H](C)/C=C\C=C\CC1)O[C@@](O)([C@@H]1CSC(=O)N1)C2 [LATRUNCULIN A]
- Kd [41]: 200 nM
- Kd [42]: 170 nM
